Biological target: GAA (human acid α-glucosidase; rhGAA) (Homo sapiens, UniProt P10253)
Assay type: biochemical

Q: How did the Ki turn out when `OC[C@H]1OC(O)[C@H](O)[C@@H](O)[C@@H]1O` (mixture of isomers) [glucose] was run?
A: Its Ki is 5.8 ± 0.6 mM.
